In patent publication US12331051B2 (priority 2021, dated 2025):
“Also recorded” adds a separate entry of the source. Like-named read-outs stand apart in the source and are kept apart here.

Legend:
[1] = biological target: T1, Serotonin 1B receptor (5-HT1BR) (Homo sapiens, UniProt P28222); assay: Functional assay in HEK-293 cells (cAMP); type: cell-based
T1 construct: expressed in transfected cells; host or cells: HEK-293
Method: Neuro-receptor binding and functional effects of the “E559 polymorph” was examined by analyzing binding affinity [Ki (nM)], functional agonist activity [EC50 (nM)], and functional antagonist activity [IC50 (nM)] against a panel of key receptors in neurophysiological disorders. Binding and functional assays were performed at “E559 polymorph” concentrations of 0.0003, 0.003, 0.01, 0.03, 0.1, 0.3, 1, and 10 μM. In binding assays, cell membrane homogenates, expressing each receptor target, were incubated with the corresponding radio-ligand in absence or presence of several concentration of the “E559 polymorph” compound. The measurement of binding affinity of the “E559 polymorph” is represented in TABLE XIII by Ki (nM) which was calculated as percent inhibition of the binding of a radioactively labeled reference ligand at each receptor. In functional assays the HEK-293 cells expressing each receptor target were suspended in buffer and distribute in microplates and incubated for 30 minutes at room temperature or 37° C. in the presence of buffer alone (basal control), the reference agonist or antagonist, or the “E559 polymorph. Following incubation, the cells were lysed and the appropriate fluorescent probe (Ca2+ flux, cAMP, or IP1) were added for 60 minutes to measure the fluorescence transfer at the appropriate wavelength using a microplate reader. The cellular agonist effect (EC50) was calculated as a percent of control response to a known reference agonist and the cellular antagonist effect (IC50) was calculated as a percent inhibition of control reference agonist response for each receptor.
The functional agonist activity [EC50 (nM), Emax], and functional antagonist activity [IC50 (nM)] of the 5R:8S stereoisomer of the “E559 polymorph” (5R:8S E558) was compared with the “E559 polymorph” (a 5R:8R stereoisomer) at selected serotonin receptors. The assays were performed as described in Example 6.

[2] = test system: primary rat embryonic cortical neurons; assay: In vitro dendritogenesis and spinogenesis assays, Sholl analysis; type: cell-based
Method: The ability of the “E559 polymorph” to induce neural plasticity was evaluated in vitro. In vitro dendritogenesis and spinogenesis assays were conducted using primary rat embryonic cortical neurons. Briefly, cultured primary cortical neurons (rat) were treated at day in vitro (DIV) 3 for 3 hours with increasing concentrations (1, 10 and 100 nM, 1 and […]) of the “E559 polymorph” and morphological changes in dendritic arbor complexity (dendritogenesis) were assessed at DIV6 by immunofluorescent staining of fixed neurons with microtubule-associated protein 2 (MAP2, a microtubule marker), F-actin (cytoskeletal marker), and phalloidin (actin filament marker) followed by fluorescent microscopy and Sholl analysis of neurons' images. […] The spine density assessments (spinogenesis) were made on DIV 18. The cell viability assessments were made on DIV 6 by using the Neurite Outgrowth Staining Kit which includes fluorescent probes for dead and live neuronal cells. Ketamine was used as a comparator and positive control. Ketamine is known to induce dendritogenesis and its effects on synaptic plasticity are believed to mediate its antidepressant effects (Aguilar-Valles et al., Nature, 2021, 590, p315-319). Representative images of MAP2 stained rat cortical neurons treated with vehicle (no drug control) or with “E559 polymorph” is shown in FIG. 18A.
Horizontal lines in all figure panels represent the means±standard error of the mean (S.E.M.).

[3] = Single-dose comparative pharmacokinetic study, IV and oral, fasted and fed; type: in vivo, Beagle dogs
Method: A single-dose comparative pharmacokinetic (PK) study was conducted in Beagle dogs to assess the oral bioavailability and the effect of food on the “E559 polymorph” (FIG. 12). Four male dogs were used in 3 test groups in a cross-over design with at least 3 days washout period between each test group (Groups 1, 2 and 3). In Group 1, four male dogs received a single intravenous (IV) dose of 0.0324 mg/kg of the “polymorph E559”. In Group 2 the same four dogs received a single oral dose of 0.324 mg/kg of the “polymorph E559” in fasted state. In Group 3 the same four dogs received a single oral dose of 0.324 mg/kg of the “E559 polymorph” in the fed state (same oral dose amount as in Group 2). Blood samples were collected from all dogs at pre-dose and 0.08, 0.25, 0.5, 1, 2, 4, 8, and 24 hours post dose to measure the “E559 polymorph” levels by LC-MS/MS method conducted as described in Example 3.

[4] = biological target: H2 histaminergic receptor (Homo sapiens, UniProt P25021); assay: BRET-based G protein dissociation assay; type: cell-based
D2 dopamine receptor = D2 dopamine receptor (Homo sapiens, UniProt P14416); assay: BRET-based G protein dissociation assay; type: cell-based
male C57BL/6J mice = assay: Head-twitch response (HTR) mouse model; type: in vivo
Method: The HTR mouse model is widely used as a proxy behavioral assay for hallucinogenic activity in humans [Halbertstad et al., Neuropharmacology, 2020, V167: 107933; Halberstadt et. al., Psychopharmacology (Berl). 2013, 227(4):727-39].
The magnet implants mounting and magnetometer assessments were conducted as described previously (Halberstadt et al., Psychopharmacology (Berl). 2013 227(4): 727-739). Data are represented as group means±standard deviation for the entire 60 minutes test session (FIG. 10A) and individual data points per 2 minutes blocks (FIG. 10B). Asterisks indicate statistical significances compared to the control (0 mg/kg).

D3 dopamine receptor = D3 dopamine receptor (Homo sapiens, UniProt P35462); assay: BRET-based G protein dissociation assay; type: cell-based
[5] = biological target: ADRb2 (β2 adrenergic receptor) (Homo sapiens, UniProt P07550); assay: BRET-based G protein dissociation assay; type: cell-based
D5 dopamine receptor = D5 dopamine receptor (Homo sapiens, UniProt P21918); assay: BRET-based G protein dissociation assay; type: cell-based
[6] = biological target: CHRM5 (M5 muscarinic receptor) (Homo sapiens, UniProt P08912); assay: BRET-based G protein dissociation assay; type: cell-based
[7] = biological target: H4 histaminergic receptor (Homo sapiens, UniProt Q9H3N8); assay: BRET-based G protein dissociation assay; type: cell-based
[8] = percentage of the reference ligand-induced maximal response, read-out: Emax

T1 sequence (P28222 whole entry): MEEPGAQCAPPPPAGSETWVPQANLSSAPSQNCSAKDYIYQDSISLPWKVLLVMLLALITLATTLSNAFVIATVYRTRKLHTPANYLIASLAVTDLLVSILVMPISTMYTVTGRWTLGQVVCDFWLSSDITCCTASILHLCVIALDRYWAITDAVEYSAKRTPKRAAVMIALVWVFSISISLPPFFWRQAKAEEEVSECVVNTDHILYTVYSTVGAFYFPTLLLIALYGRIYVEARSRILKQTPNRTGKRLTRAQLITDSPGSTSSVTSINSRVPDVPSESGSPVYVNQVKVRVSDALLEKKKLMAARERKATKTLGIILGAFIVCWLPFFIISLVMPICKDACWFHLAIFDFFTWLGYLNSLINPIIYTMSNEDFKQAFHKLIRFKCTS
Chain of D2 dopamine receptor (P14416 whole entry): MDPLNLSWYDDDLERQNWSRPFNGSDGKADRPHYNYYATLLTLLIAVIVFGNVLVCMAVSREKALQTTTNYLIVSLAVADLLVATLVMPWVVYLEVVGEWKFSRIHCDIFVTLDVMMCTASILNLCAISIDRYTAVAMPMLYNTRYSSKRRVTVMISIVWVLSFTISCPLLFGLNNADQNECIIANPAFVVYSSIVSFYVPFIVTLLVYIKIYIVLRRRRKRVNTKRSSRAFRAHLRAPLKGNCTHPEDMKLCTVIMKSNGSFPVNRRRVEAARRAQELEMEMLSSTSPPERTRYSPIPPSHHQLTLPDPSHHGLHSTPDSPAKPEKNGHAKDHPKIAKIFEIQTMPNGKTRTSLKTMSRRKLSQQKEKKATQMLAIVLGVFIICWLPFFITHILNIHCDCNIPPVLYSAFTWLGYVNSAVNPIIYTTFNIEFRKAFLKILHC
Chain of D3 dopamine receptor (P35462 whole entry): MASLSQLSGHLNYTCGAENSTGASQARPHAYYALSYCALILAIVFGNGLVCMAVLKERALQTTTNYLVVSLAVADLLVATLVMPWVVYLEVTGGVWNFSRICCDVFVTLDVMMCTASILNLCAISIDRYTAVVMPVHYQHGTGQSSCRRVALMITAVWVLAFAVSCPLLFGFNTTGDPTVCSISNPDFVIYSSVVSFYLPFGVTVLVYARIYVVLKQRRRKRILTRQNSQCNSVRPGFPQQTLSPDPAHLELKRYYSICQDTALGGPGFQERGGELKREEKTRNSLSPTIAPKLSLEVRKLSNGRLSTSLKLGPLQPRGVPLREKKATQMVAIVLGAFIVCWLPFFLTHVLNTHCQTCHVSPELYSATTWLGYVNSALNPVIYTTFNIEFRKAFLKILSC
Chain of H2 histaminergic receptor (P25021 whole entry): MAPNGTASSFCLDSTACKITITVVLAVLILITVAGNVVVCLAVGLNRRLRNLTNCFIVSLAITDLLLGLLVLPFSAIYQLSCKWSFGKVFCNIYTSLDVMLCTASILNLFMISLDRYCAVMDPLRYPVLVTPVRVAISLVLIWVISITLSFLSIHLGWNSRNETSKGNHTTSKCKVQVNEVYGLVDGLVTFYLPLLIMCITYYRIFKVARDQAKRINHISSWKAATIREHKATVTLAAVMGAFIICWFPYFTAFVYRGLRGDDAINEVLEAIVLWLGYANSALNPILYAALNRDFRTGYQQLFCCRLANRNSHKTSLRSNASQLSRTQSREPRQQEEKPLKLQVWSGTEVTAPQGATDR
Chain of D5 dopamine receptor (P21918 whole entry): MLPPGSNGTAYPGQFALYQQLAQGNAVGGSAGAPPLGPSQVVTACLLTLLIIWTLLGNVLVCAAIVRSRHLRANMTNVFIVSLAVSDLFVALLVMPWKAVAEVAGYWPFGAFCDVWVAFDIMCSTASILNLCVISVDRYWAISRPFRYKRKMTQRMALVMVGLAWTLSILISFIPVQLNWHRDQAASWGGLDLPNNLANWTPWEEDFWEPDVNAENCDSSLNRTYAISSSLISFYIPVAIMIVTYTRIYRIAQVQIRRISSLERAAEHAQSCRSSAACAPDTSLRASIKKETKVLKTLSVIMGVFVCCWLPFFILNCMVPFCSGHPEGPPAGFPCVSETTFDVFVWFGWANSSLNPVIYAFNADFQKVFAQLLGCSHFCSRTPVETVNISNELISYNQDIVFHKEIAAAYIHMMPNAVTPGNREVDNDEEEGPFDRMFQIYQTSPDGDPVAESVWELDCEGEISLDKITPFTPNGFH
Chain of H4 histaminergic receptor (Q9H3N8 whole entry): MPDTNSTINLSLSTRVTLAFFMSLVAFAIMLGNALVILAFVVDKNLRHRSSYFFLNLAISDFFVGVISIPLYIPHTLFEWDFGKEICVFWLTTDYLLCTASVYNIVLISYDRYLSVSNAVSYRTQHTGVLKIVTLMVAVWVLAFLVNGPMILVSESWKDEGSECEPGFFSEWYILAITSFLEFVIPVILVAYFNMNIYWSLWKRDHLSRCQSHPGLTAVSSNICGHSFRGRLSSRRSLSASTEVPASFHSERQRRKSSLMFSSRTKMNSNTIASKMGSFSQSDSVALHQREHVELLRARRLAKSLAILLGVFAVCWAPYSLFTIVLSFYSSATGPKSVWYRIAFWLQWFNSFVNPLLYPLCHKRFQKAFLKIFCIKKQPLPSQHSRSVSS
Chain of CHRM5 (M5 muscarinic receptor) (P08912 whole entry): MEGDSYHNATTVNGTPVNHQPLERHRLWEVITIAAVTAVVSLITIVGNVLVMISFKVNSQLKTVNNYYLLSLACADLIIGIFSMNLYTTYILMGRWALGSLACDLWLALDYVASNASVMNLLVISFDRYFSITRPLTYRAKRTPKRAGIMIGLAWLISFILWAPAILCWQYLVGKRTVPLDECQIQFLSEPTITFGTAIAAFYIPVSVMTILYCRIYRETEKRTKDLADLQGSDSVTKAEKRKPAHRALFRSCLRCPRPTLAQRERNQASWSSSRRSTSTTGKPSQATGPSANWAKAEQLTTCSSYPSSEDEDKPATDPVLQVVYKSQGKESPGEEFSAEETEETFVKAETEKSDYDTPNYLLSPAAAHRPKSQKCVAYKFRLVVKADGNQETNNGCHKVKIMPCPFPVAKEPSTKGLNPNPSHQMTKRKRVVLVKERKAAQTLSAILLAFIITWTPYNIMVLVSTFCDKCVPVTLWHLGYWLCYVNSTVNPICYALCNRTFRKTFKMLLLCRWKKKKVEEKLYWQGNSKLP
Chain of ADRb2 (β2 adrenergic receptor) (P07550 whole entry): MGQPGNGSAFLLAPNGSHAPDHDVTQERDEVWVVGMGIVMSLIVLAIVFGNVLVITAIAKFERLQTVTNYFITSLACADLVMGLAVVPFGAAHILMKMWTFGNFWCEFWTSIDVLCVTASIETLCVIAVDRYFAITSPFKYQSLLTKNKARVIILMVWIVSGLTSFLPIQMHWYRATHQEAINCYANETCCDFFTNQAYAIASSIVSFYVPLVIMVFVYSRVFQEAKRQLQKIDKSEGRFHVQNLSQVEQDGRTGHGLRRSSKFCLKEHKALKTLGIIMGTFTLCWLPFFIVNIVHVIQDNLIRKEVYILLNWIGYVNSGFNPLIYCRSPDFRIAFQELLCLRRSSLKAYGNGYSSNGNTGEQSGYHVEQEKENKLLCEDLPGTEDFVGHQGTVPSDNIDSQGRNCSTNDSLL

Structure (SMILES): CCN(CC)C(=O)[C@@H]1C=C2c3cccc4[nH]c(Br)c(c34)C[C@H]2N(C)C1 [E559, (5R, 8R)-2-Bromo-9,10-didehydro-N,N-diethyl-6-methylergoline-8-carboxamide hemi-D-tartrate]
- IC50 [1]: > 10 µM
- EC50 ([1]; Functional (Agonist) EC50 (nM), cAMP): 6.69 nM
- EC50 ([1]; Functional Assay (agonist) EC50 (nM), cAMP, ligand 5-HT): 6.96 nM
- Emax ([1]; HEK293, cAMP, ligand 5-HT, read-out: Functional Assay (agonist) Emax): 100%
- lowest concentration at which increase in neuronal plasticity reached statistical significance ([2]; 3 hours treatment at DIV3): 1 µM
- lowest concentration at which increase in neuronal plasticity was detectable ([2]; 3 hours treatment at DIV3): 1 nM
- total length of the dendritic arbor ([2]; DIV6, 1 and 10 μM): total length of the dendritic arbor was also increased
- total dendrites crossing the Sholl radii ([2]; DIV6, 1 and 10 μM significant vs control): significantly increased the number of total dendrites crossing the Sholl radii
- spine density ([2]; DIV 18, 3-hour incubation at 1 and 10 μM): increased the spine density
- oral bioavailability ([3]; oral 0.324 mg/kg vs IV 0.0324 mg/kg): good oral bioavailability
- effect of food on oral bioavailability ([3]; oral 0.324 mg/kg, fasted vs fed): no differences in the mean absolute and relative oral bioavailability between fasted and fed dogs
- EC50 [4]: 296 nM
- Emax [4]: 28.8%
- Kb [4]: 5.19 µM
- EC50 (D2 dopamine receptor): 0.35 nM
- Emax (D2 dopamine receptor): 77.4%
- head-twitch response (HTR) (male C57BL/6J mice; IP, E559 polymorph 0.1-10 mg/kg, LSD 0.1 mg/kg, 60 minutes): negative in HTR at all doses tested; also recorded: did not induce HTR above baseline at any tested dose
- EC50 (D3 dopamine receptor): 2.84 nM
- Emax (D3 dopamine receptor): 31.8%
- Kb (D3 dopamine receptor): 7.13 nM
- EC50 [5]: 4.26 nM
- Kb [5]: 17.6 nM
- EC50 (D5 dopamine receptor): 3.75 nM
- Emax (D5 dopamine receptor): 15.6%
- Kb (D5 dopamine receptor): 25.1 nM
- EC50 [6]: 5.82 µM
- Emax [7]: 17.4%

Structure (SMILES): CCN(CC)C(=O)[C@@H]1C=C2c3cccc4[nH]cc(c34)C[C@H]2N(C)C1 [LSD, lysergic acid diethylamide, reference compound]
- EC50 ([4]; agonist mode, read-out: EC50): > 10000 nM
- Emax [4, 8]: 21.2%
- EC50 (D2 dopamine receptor): 2.17 nM
- Emax (D2 dopamine receptor): 86%
- head-twitch response (HTR) (male C57BL/6J mice; mouse, in vivo): elicited a strong HTR
- EC50 (D3 dopamine receptor; agonist mode, read-out: EC50): 7.57 nM
- Emax (D3 dopamine receptor; [8]): 74.5%
- EC50 (D5 dopamine receptor; agonist mode, read-out: EC50): 166 nM
- Emax (D5 dopamine receptor; [8]): 70.7%
- EC50 ([6]; agonist mode, read-out: EC50): > 10 µM
- EC50 ([7]; agonist mode): 0.09 nM
- Emax [7, 8]: 15%
